We go through seven compounds from patent US20040152741A1, “Arylglycine derivatives and their use as glycine transport inhibitors” (NPS Allelix Corporation, priority 2002, published 2004).

This assay has as its target T1, GlyT-1 C (Homo sapiens, UniProt P48067).
T1 construct: expressed in transfected cells; QT-6 quail fibroblast cells are called preferred
T1 sequence (P48067 1-706): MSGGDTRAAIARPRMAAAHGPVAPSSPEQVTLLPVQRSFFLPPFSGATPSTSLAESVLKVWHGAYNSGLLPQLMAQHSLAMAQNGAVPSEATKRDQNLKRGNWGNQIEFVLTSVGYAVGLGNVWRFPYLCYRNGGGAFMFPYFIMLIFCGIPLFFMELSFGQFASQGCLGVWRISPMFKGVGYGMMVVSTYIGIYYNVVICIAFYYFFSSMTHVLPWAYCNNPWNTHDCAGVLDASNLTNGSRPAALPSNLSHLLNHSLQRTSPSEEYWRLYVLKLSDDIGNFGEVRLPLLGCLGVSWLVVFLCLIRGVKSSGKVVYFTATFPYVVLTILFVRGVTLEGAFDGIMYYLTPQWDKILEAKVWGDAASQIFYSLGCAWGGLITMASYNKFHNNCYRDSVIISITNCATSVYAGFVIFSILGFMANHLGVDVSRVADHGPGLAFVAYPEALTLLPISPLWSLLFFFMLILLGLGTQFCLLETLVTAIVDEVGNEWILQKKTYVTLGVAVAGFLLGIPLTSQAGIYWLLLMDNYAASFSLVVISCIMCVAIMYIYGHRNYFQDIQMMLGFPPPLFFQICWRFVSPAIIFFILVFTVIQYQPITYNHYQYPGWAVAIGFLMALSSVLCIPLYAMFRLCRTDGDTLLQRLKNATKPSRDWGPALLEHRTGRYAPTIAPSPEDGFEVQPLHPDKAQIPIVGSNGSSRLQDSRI
In words: Assay of transport via GlyT-1: [3H]glycine uptake by stably transfected cells. To be noted: cells stably transfected with GlyT-1 C; 50 nM [3H]glycine, 30 minutes at 37° C.; read-out: GlyT1 uptake IC50. It is filed as cell-based. From the text: For use in assaying for activity in inhibiting glycine transport, eukaryokic cells, preferably QT-6 cells derived from quail fibroblasts, have been transfected to express one of the three known variants of human GlyT-1, namely GlyT-1a, GlyT-1b or GlyT-1c, or human GlyT-2. The sequences of these GlyT-1 transporters are described in Kim et al., Molec. Pharm. 45: 608-617, 1994, excepting that the sequence encoding the extreme N-terminal of GlyT-1a was merely inferred from the corresponding rat-derived sequence. This N-terminal protein-encoding sequence has now been confirmed to correspond to that inferred by Kim et al. The sequence of the human GlyT-2 is described by Albert et al., U.S. Pat. No. 919,653 issued July 1999, which is incorporated herein by reference in its entirety. Suitable expression vectors include pRc/CMV (Invitrogen), Zap Express Vector (Stratagene Cloning Systems, LaJolla, Calif.; hereinafter “Stratagene”), pBk/CMV or pBk-RSV vectors (Stratagene), Bluescript II SK +/− Phagemid Vectors (Stratagene), LacSwitch (Stratagene), pMAM and pMAM neo (Clontech), among others. A suitable expression vector is capable of fostering expression of the included GlyT DNA in a suitable host cell, preferably a non-mammalian host cell, which can be eukaryotic, fungal, or prokaryotic. Such preferred host cells include amphibian, avian, fungal, insect, and reptilian cells.
This example illustrates a method for the measurement of glycine uptake by transfected cultured cells.
Cells stably transfected with GlyT-1 C (see Kim, et al., Molecular Pharmacology, 45, 1994:608-617) were washed twice with HEPES buffered saline (HBS). The cells were then incubated for 10 minutes at 37° C. with either (a) no potential competitor, (b) 10 mM non-radioactive glycine or (c) a concentration of a candidate drug. A range of concentrations of the candidate drug was used to generate data for calculating the concentration resulting in 50% of the effect (e.g., the IC50s, which are the concentrations of drug inhibiting glycine uptake by 50%). A solution was then added containing [^3H]glycine at a final concentration of 50 nM (17.5 Ci/mmol). The cells were then incubated with gentle shaking for another 30 minutes at 37° C., after which the reaction mixture was aspirated and washed three times with ice-cold HBS. The cells were lysed with scintillant and allowed to equilibrate. The radioactivity in the cells was determined using a scintillation counter. Data was compared between the same cells contacted or not contacted by a candidate agent, depending on the assay being conducted.
As for `COc1ccc([N+](=O)[O-])cc1NC(=O)N[C@@H](C(=O)Nc1ccc2c(c1)CCC2)c1ccccc1` [E29.1*], the half-inhibitory concentration (IC50) is 71.9 nM. `COc1ccc([N+](=O)[O-])cc1NC(=S)N[C@@H](C(=O)Nc1ccc(C)c(C)c1)c1ccccc1` [E33.1*, (R)-2-[3-(2-methoxy-5-nitro-phenyl)-thioureido]-N-(3,4-dimethylphenyl)-2-phenyl acetamide]: the IC50 was 96 nM. Under `COc1ccc([N+](=O)[O-])cc1NC(=O)NC(C(=O)Nc1cccc(C(F)(F)F)c1)c1ccccc1` (stereo not shown) [Experiment E31.2, 2-[3-(2-methoxy-5-nitro-phenyl)-ureido]-N-(3-trifluoromethylphenyl)-2-phenyl acetamide] stands 202 nM. The same measure for `COc1ccc([N+](=O)[O-])cc1NC(=S)NC(C(=O)Nc1ccc(C)c(C)c1)c1ccccc1` (stereo not shown) [Experiment E32.2, 2-[3-(2-methoxy-5-nitro-phenyl)-thioureido]-N-(3,4-dimethylphenyl)-2-phenyl acetamide]: 334 nM; for `COc1ccc([N+](=O)[O-])cc1NC(=O)N[C@@H](C(=O)Nc1ccc(C)c(C)c1)c1ccccc1` [Experiment E32.5, (R)-2-[3-(2-methoxy-5-nitro-phenyl)-ureido]-N-(3,4-dimethylphenyl)-2-phenyl acetamide]: 25.9 nM; for `COc1ccc([N+](=O)[O-])cc1NC(=O)NC(C(=O)Nc1ccc2c(c1)CCC2)c1ccsc1` (stereo not shown) [Experiment E42.1]: 114 nM. As for `COc1ccc([N+](=O)[O-])cc1NC(=S)NC(C(=O)Nc1ccc2c(c1)CCC2)c1ccsc1` (stereo not shown) [Experiment E42.2], the IC50 is 131 nM.

The IC50 is the midpoint of a concentration-inhibition curve.
